From US20200181597A1, “Composition and Application of Arginine-depleting Agents for Cancer, Obesity, Metabolic Disorders, and Related Complications and Comorbidities” (THE HONG KONG POLYTECHNIC UNIVERSITY, priority 2018, published 2020) come the findings set out here.

Series [1] has as its system MDA-MB-231 breast cancer cells. Nature of the series: cells. In kind it is cell-based, human. To be noted: Homo sapiens. The protocol: (§1) Breast cancer cell lines (e.g. human MCF-7 and MDA-MB-231 cells) were used in these studies. Cancer cells (5×10^3 cells) were seeded in 96-well plates (TPP) with […] complete medium. The plates were incubated in incubator overnight and the cells were allowed to adhere to the plates. […] Each dosage was triplicated in 3 wells to obtain the average change of cell viability. […] The plates were put back into the incubator and further incubated for 4 h. To dissolve the insoluble compound, formazan, formed by MTT, 100 μl of 10% SDS in 0.01 M HCl was added. The plates were incubated at 37° C. overnight. The color change was measured by spectrophotometer at 570 nm. Control set up (without any drug) was used as base to calculate percentage of cell viability which was used to plot the dose response curve by the software Prism 6.0 (GraphPad) to find the IC50 values. […] CalcuSyn software (Biosoft) was used for calculating the CI values.

The next series concerns MCF-7 cancer cells. Nature of the series: cells. To be noted: Homo sapiens. In kind it is cell-based, human. The protocol: as §1
The next series relates to HT29. Nature of the series: cells. The settings on record: Homo sapiens, HT-29, 72 h. As for the experimental part:
(§2) The in vitro efficacy of ABD and rhArg fusion protein was tested on human colon cancer cell lines. Human colon cancer cell lines (HCT116, LOVO and HT29) were seeded in 96-well plate at densities of 5×10^3 cells/well. After 1 day of incubation, the culture medium was replaced with medium containing different concentrations (2, 0.4, 0.08, 0.016 and 0.0032 U/ml) of N-ABD094-rhArg (SEQ ID NO: 50). MTT assay was conducted at Day 3 [3 days after N-ABD094-rhArg (SEQ ID NO: 50) treatment] to determine the IC50 values. The culture medium was replaced with MTT solution (1 mg/ml) (Invitrogen) and incubated at 37° C. for 4 h. After incubation, MTT solution was replaced with dimethyl sulfoxide (DMSO), and the absorbance at 570 nm was measured with a reference of 650 nm. The cell viability was determined by dividing the absorbance of N-ABD094-rhArg-treated cells by the average absorbance of untreated cells. […] Three independent sets of experiments (n=3) were performed for each cell line.
(§3) MTT assay was conducted at Day 3. Three independent sets of experiments (n=3) were performed for each cell line.
(§4) For drug-combination assay, a non-constant ratio analysis was performed (Hastak et al., 2010, Cancer Res. 70(20):7970-7980). Colon cancer cells were seeded and after 1 day of incubation, the culture medium was replaced with medium containing different concentrations of N-ABD094-rhArg (SEQ ID NO: 50) (2, 0.4, 0.08, 0.016, 0.0032 U/ml) combined with fixed amount of CQ according to its IC50. MTT assay was conducted at Day 3. The combination index (CI) of combined N-ABD094-rhArg (SEQ ID NO: 50) and CQ treatment was analyzed by software CalcuSyn version 2.1. Three independent sets of experiments (n=3) were performed for each cell line.

In series [2] the test system is HCT116. Briefly: cells. The settings on record: Homo sapiens, HCT-116, 72 h. As for the experimental part:
as §2, §3, §4

In the next series the test system is LOVO. Briefly: cells. To be noted: Homo sapiens, LoVo, 72 h. As for the experimental part:
as §2, §3, §4

Series [3] addresses human serum albumin (HSA), P02768.
The next series has as its system HeLa. Nature of the series: MTT cytotoxicity of ADI, BCA, ADC. In kind it is cell-based, human. To be noted: 72 h. The protocol: (§5) For cell proliferation assay, cancer cells (5×10^3) in a volume of 100 μL of growth medium were seeded to each well of a 96-well plate and incubated for 24 h. The culture medium was replenished by arginine free medium (AFM) supplemented with different concentrations of arginine, fresh medium containing various concentrations of different arginine depleting enzymes as well as using these enzymes in combination with citrulline. The plate was incubated for an additional 1-3 days at 37° C. in an incubator containing a humidified atmosphere of 95% air and 5% CO2.
(§6) Quantitative cell proliferation assays were performed using MTT (3-[4,5-dimethylthiazol-2-yl]-2,5-diphenyl tetrazolium bromide) assays as widely described elsewhere. The amount of arginine depleting enzyme required to kill 50% of the cells in a culture was defined as IC50.
(§7) The cytotoxicities of arginine deiminase (ADI), bacterial arginase (BCA) and arginine decarboxylase (ADC) were determined in a comparative study in five tumor cell lines: A375, HeLa, BxPC-3, PANC-1, and HCT116.
(§8) Table 6. IC50 and maximum cytotoxicity of ADI, BCA and ADC on five human cancer cell lines. Cells were treated for 72 h before MTT analysis. Data are the mean of three experiments performed in triplicate. IC50 value is defined as the amount of enzyme needed to achieve 50% inhibition of cell viability. Maximum cytotoxicity is expressed as the maximum percentage of nonviable cells achieved by each enzyme. ADI-resistant cells are defined as cells of which more than 50% survive under the maximum dose of ADI tested.

The subject of another series is PANC-1. Briefly: MTT cytotoxicity of ADI, BCA, ADC. In kind it is cell-based, human. To be noted: PANC-1, 72 h. The protocol: as §5, §6, §7, §8
Series [4] deals with HCT116. Nature of the series: MTT cytotoxicity of ADI, BCA, ADC. The format is cell-based, human. To be noted: HCT116, 72 h. As for the experimental part:
as §5, §6, §7, §8

For another series, the system named is A375. Briefly: MTT cytotoxicity of ADI, BCA, ADC. In kind it is cell-based, human. The settings on record: A375, 72 h. As for the experimental part: as §5, §6, §7, §8
For the next series, the system named is BxPC-3. Nature of the series: MTT cytotoxicity of ADI, BCA, ADC. The format is cell-based, human. The settings on record: BxPC-3, 72 h. As for the experimental part: as §5, §6, §7, §8
In series [5] the target is human serum albumin (HSA) (human, UniProt P02768 25-609). Nature of the series: non-denaturing PAGE; 30 pmol HSA titrated with 7.5-120 pmol fusion protein.
Setting [6] is: MDA-MB-231, 72 h, read-out: Mean of % Cell Viability.
Setting [7] is: MCF7, read-out: Mean of % Cell Viability.

In the case of `CCN(CC)CCCC(C)Nc1ccnc2cc(Cl)ccc12` (stereo not drawn) [CQ, chloroquine], the IC50 in [1] (MDA-MB-231) was 73.4 µM; with MCF-7 cancer cells (MCF7), 67.2 µM; in the series on HT29 it was 71 µM; with HCT116 [2], more than 100 µM; with LOVO, 15 µM. In addition, the viability at 0.16 µM worked out at 99% in series [1] (setting [6]) and 96.3% in the series on MCF-7 cancer cells (setting [7]). For the same molecule, the values for the viability at 0.8 µM (in [1] (setting [6]); in the series with MCF-7 cancer cells (setting [7])) were 98.1% and 85.9%, respectively. Besides, the viability at 4 µM in [1] (setting [6]) came to 82.2%; in the series on MCF-7 cancer cells (setting [7]), 83.3%. Moreover, the viability at 20 µM in series [1] (setting [6]) was 75.2%; in the series with MCF-7 cancer cells (setting [7]), 72.4%. Further, the viability at 100 µM amounted to 43.2% in [1] (setting [6]) and 40.7% in the series on MCF-7 cancer cells (setting [7]).

B1: BCA-6xHis-ABD fusion protein BHA (SEQ ID NO: 75) (protein)
chain: MKPISIIGVPMDLGQTRRGPDMGPSAMRYAGVIERLERLHYDIEDLGDIPIGKAERLHEQGDSRLRNLKAVAEANEKLAAAVDQVVQRGRFPLVLGGDHSIAIGTLAGVAKHYERLGVIWYDAHGDVNTAETSPSGNIHGMPLAASLGFGHPALTQIGGYCPKIKPEHVVLIGVRSLDEGEKKFIREKGIKIYTMHEVDRLGMTRVMEETIAYLKERTDGVHLSLDLDGLDPSDAPGVGTPVIGGLTYRESHLAMEMLAEAQIITSAEFVEVNPILDERNKTASVAVALMGSLFGEKLMHHHHHHAQHDEAVDANSLAEAKVLANRELDKYGVSDYYKNLINNAKTVEGVKALIDEILAALP
Consider B1, for which, in series [3], the “specific activity (arginine catabolic activity, DAMO assay) at BHA:HSA mole ratios 1:10, 1:5, 1:1, 5:1 and 10:1” value is “approximately 200 U/mg”.

B2: BCA: bacterial arginase (Bacillus caldovelox arginase) (protein, UniProt P53608 1-299, looked up)
Arginase: MKPISIIGVPMDLGQTRRGVDMGPSAMRYAGVIERLERLHYDIEDLGDIPIGKAERLHEQGDSRLRNLKAVAEANEKLAAAVDQVVQRGRFPLVLGGDHSIAIGTLAGVAKHYERLGVIWYDAHGDVNTAETSPSGNIHGMPLAASLGFGHPALTQIGGYSPKIKPEHVVLIGVRSLDEGEKKFIREKGIKIYTMHEVDRLGMTRVMEETIAYLKERTDGVHLSLDLDGLDPSDAPGVGTPVIGGLTYRESHLAMEMLAEAQIITSAEFVEVNPILDERNKTASVAVALMGSLFGEKLM
Take B2: the IC50 stood at 1.25 µg/mL in the series on HeLa; 1.81 µg/mL in the series on PANC-1; 0.22 µg/mL in the series with HCT116 [4]; 0.12 µg/mL in the series on A375; 0.44 µg/mL in the series with BxPC-3. Further, the Maximum cytotoxicity in the series on HeLa was 61.14%; with PANC-1, 63.01%; in the series with HCT116 [4], 81.05%; in the series with A375, 86.92%; in the series on BxPC-3 it was 84.82%.

B3: N-ABD-rhArg fusion protein (SEQ ID NO: 49) (enzyme)
chain: MHHHHHHDEAVDANSLAEAKVLANRELDKYGVSDYYKNLINNAKTVEGVKALIDEILAALPSGSNNNNNNGSGGMSAKSRTIGIIGAPFSKGQPRGGVEEGPTVLRKAGLLEKLKEQECDVKDYGDLPFADIPNDSPFQIVKNPRSVGKASEQLAGKVAEVKKNGRISLVLGGDHSLAIGSISGHARVHPDLGVIWVDAHTDINTPLTTTSGNLHGQPVSFLLKELKGKIPDVPGFSWVTPCISAKDIVYIGLRDVDPGEHYILKTLGIKYFSMTEVDRLGIGKVMEETLSYLLGRKKRPIHLSFDVDGLDPSFTPATGTPVVGGLTYREGLYITEEIYKTGLLSGLDIMEVNPSLGKTPEEVTRTVNTAVAITLACFGLAREGNHKPIDYLNPPK
notes: It was expressed in E. coli ER2566 and purified on a Ni-IDA column
As to B3, in series [5], the binding result is “binds”.
